Reference: ChEMBL document CHEMBL2434852, “Synthesis, cytotoxicity and DNA binding of oxoazabenzo[de]anthracenes derivatives in colon cancer Caco-2 cells” (Eur J Med Chem, 2013)
Active and inactive are the calls of the source. The calls are words filed in the database; no cut-off is given here.

Columns and labels:
[1] = test system: DNA; test: Binding affinity to calf thymus DNA assessed as melting temperature at 10 uM by UV-Vis spectrophotometer analysis; type: nucleic-acid assay; conditions: Bos taurus
[2] = test system: Caco-2; test: Cytotoxicity against human Caco2 cells after 72 hrs by MTT assay; type: functional, cell-based; conditions: for IC50: Caco-2, 72 h
[3] = test system: Caco-2; test: Cytotoxicity against human Caco2 cells up to 40 uM after 24 hrs by MTT assay; type: functional, cell-based
[4] = test system: DNA; test: Displacement of ethidium bromide from calf thymus DNA assessed as fluorescence quenching by fluorometric assay; type: nucleic-acid assay; conditions: Bos taurus
[5] = target: DNA topoisomerase 2-alpha (Homo sapiens) (UniProt P11388); test: Inhibition of topoisomerase 2 (unknown origin) relaxation of supercoiled pBR322 at 50 to 100 uM by agarose gel electrophoresis
[6] = target: T1, DNA topoisomerase 1 (Homo sapiens) (UniProt P11387); test: Inhibition of topoisomerase 1 (unknown origin) relaxation of supercoiled pBR322 at 50 to 100 uM by agarose gel electrophoresis
T1 sequence (whole entry): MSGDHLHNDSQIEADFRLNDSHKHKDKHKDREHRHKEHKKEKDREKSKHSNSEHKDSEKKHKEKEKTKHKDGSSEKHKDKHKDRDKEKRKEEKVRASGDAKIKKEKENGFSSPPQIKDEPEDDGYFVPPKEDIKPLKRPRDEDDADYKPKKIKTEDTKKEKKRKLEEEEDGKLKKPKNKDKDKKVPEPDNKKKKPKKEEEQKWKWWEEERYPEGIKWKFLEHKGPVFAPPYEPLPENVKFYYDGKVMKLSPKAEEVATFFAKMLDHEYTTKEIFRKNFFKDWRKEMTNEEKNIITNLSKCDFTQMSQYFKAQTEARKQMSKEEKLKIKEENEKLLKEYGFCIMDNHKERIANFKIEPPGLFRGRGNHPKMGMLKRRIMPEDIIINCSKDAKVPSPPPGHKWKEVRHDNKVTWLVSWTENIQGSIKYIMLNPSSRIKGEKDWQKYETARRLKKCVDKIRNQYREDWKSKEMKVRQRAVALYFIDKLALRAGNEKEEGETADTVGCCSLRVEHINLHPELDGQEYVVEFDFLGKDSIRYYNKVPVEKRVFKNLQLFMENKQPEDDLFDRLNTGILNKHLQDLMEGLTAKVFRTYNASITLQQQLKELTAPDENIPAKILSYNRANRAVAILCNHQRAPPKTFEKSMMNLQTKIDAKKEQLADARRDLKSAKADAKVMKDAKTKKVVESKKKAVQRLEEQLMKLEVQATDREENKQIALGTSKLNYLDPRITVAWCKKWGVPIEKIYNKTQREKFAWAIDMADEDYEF

[7] = test system: Escherichia coli; test: Binding affinity to Escherichia coli supercoiled pBR322 assessed as change in morphology of plasmid to more relaxed conformation at 50 to 100 uM by agarose gel electrophoresis

DNA topoisomerase 2-alpha (Homo sapiens), sequence (P11388 whole entry): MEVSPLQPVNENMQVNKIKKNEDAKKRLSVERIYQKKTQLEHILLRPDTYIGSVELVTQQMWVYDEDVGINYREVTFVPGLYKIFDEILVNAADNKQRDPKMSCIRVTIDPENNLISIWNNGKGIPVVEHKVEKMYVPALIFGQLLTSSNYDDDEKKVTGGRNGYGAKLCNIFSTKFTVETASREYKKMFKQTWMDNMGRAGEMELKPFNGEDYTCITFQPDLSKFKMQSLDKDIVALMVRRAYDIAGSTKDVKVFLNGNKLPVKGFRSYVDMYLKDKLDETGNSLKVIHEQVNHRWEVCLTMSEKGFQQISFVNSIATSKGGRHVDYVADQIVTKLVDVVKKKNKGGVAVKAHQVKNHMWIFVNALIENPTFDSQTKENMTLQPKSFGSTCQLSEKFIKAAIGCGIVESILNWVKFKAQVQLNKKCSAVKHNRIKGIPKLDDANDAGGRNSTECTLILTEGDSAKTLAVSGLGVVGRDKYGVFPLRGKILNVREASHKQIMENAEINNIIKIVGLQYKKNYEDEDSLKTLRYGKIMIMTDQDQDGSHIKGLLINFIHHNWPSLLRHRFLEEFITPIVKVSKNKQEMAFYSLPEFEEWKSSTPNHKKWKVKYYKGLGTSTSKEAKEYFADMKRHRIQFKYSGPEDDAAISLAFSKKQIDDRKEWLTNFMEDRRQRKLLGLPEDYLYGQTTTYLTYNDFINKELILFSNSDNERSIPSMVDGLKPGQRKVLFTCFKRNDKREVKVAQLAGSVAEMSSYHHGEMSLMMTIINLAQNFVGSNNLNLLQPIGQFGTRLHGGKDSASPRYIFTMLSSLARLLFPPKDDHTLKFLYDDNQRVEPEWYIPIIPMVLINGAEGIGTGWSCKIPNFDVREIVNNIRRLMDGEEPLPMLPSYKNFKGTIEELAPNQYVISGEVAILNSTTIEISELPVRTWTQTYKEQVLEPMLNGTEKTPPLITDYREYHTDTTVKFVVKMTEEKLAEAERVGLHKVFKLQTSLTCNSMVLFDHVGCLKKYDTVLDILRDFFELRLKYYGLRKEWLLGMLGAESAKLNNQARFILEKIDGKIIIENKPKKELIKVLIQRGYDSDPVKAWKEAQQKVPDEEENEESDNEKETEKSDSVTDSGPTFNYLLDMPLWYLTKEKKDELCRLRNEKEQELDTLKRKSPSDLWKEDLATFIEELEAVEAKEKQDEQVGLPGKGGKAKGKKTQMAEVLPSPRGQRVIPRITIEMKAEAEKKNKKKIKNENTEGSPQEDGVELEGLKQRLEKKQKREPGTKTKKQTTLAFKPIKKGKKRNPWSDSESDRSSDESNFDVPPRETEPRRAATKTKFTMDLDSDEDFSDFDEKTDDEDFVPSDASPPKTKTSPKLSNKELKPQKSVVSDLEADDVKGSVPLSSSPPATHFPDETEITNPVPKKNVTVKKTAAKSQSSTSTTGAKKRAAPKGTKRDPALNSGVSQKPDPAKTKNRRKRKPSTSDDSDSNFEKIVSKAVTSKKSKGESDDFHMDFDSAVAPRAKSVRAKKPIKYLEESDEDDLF

Row | SMILES | Tm [1] [°C] | C50 [4] | inhibition [5] | inhibition [6] | Activity [7] | IC50 [2] [µM] | Activity [3] | Activity [2]
1 | COc1cccc2c1C(=O)c1c(O)c3c(c(O)c1C2=O)C[C@@](O)(C(=O)CO)C[C@@H]3O[C@H]1C[C@H](N)[C@H](O)[C@H](C)O1 [DOXORUBICIN] | 92 |  |  |  |  | 5 | inactive | 
2 | O=C1c2cccc(O)c2C2=NC(CCCO)Oc3cccc1c32 (centres undefined) | 58.4 | inactive |  |  |  |  | inactive | 
3 | NCCC1CCCCN1C1N=C2c3c(O)cccc3C(=O)c3cccc(c32)O1 (centres undefined) | 79.9 | 6 µM | inactive | inactive | Active | 16 | inactive | 
4 | NCCC1CN(C2N=C3c4c(O)cccc4C(=O)c4cccc(c43)O2)CCO1 (centres undefined) | 66.2 | inactive |  |  |  |  | inactive | inactive

Now from value to compound, other results behind:

Row | Tm [1] [°C] | C50 [4] | inhibition [5] | inhibition [6] | Activity [7] | SMILES | IC50 [2] [µM] | Activity [3] | Activity [2]
5 | 59.2 | inactive |  |  |  | O=C1c2cccc(O)c2C2=NC(CCCCCO)Oc3cccc1c32 (centres undefined) |  | inactive | 
6 | 57.2 | inactive |  |  |  | O=C1c2cccc(O)c2C2=NC(CCO)Oc3cccc1c32 (centres undefined) |  | inactive | 
7 | 64.3 | inactive |  |  |  | O=C1c2cccc(O)c2C2=NC(CO)Oc3cccc1c32 (centres undefined) |  | inactive | 
8 | 62.2 | inactive |  |  |  | O=C1c2cccc(O)c2C2=NC(CCCCO)Oc3cccc1c32 (centres undefined) |  | inactive | 
